The source of these data is paper PMC11644009 (Molecules, 2024).

Experiment [1] concerns influenza virus A/Vladivostok/2/09 (H1N1). It counts as in vivo. The settings on record: compound 0.2%, 0.4 mg/ch.e. (8 mg/kg).
Experiment [2] shares this test system. The experiment is described as follows: Virus inhibitory activity on chicken embryo model (chemical therapeutic index). It counts as in vivo. The settings on record: samples 0.0016%–0.2% (0.003–0.4 mg per chicken embryo), Rimantadine 10 µg/mL, Tamiflu 6 µg/mL. The protocol:
Rimantadine® (Olainfarm, Olaine, Latvia), alpha-methyltricyclo[3.3.1.1/.7]decan-1-methanamine (in the form of hydrochloride)) was used as a comparison drug at a dose of 10 µg /mL and Tamiflu® (Oseltamivir, Hoffmann-La Roche, Basel, Switzerland, (3R,4R,5S)-4-acetylamino-5-amino-3-(1-ethylpropoxy)-1-cyclohexene-1-carboxylic acid ethyl […], phosphate)) at a dose of 6 µg /mL.
To determine the chemical therapeutic index (CTI), the virus inhibitory activity of samples was studied at concentrations from 0.0016% to 0.2%, which corresponded to doses of 0.003–0.4 mg per chicken embryo (0.06–8 mg/kg) (Table 2).

Experiment [3] has as its system neuraminidase activity of influenza virus A/Vladivostok/2/09 (H1N1). The experiment is described as follows: Effect on neuraminidase activity (fluorescent kit). It counts as biochemical. The note with it: maximum dose 1 mg/100 μL. The protocol: To determine the effect of lupinine derivatives 1–5 on neuraminidase activity, the maximum dose of 1 mg/100 μL was used. It was established (Figure 3) that compounds 4 and 5 were able to alter the neuraminidase activity of influenza viruses. It was shown that these two triazole-containing lupinines suppressed neuraminidase activity by no more than 40%.
The determination of the neuraminidase activity of the studied samples was carried out using a fluorescent kit in accordance with the manufacturer’s recommendations (AbCam, Cambridge, UK). The non-fluorescent neuraminidase substrate becomes highly fluorescent when cleaved by neuraminidase. The signal is easily read by fluorescence at Ex/Em = ~320/~450 nm.
Figure 3 The influence of the studied samples on neuraminidase activity.

Experiment [4] concerns hemagglutinating activity of influenza A/Vladivostok/2/09 (H1N1) virus. The experiment is described as follows: Effect on hemagglutinating activity of influenza virus. The note with it: maximum dose 1 mg/100 μL.
Protocol: The hemagglutinating activity of viruses was determined according to the standard method [53] using a 0.75% suspension of chicken erythrocytes. When determining the effect of the studied sample on hemagglutinating properties, the sample in different doses was mixed with the virus, and after 30 min of incubation at 37 °C, the hemagglutinating activity was determined using the standard method.

Consider `Cc1cccc(-c2cn(C[C@@H]3CCCN4CCCC[C@H]34)nn2)c1` [Compound 2, (1S,9aR)-1-{[4-(m-Tolyl)-1H-1,2,3-triazol-1-yl]methyl}octahydro-2H-quinolizine], for which the “Decrease in Influenza Virus Infectivity Titer, lg” value in experiment [1] was determined as 0.8 lg. In addition, the “Chemical Therapeutic Index of the Studied Sample” value (“Chemical Therapeutic Index” below) in experiment [2] was 57.0.
`CCOC(=O)C1=C[C@@H](OC(CC)CC)[C@H](NC(C)=O)[C@@H](N)C1` [Tamiflu, (3R,4R,5S)-4-acetylamino-5-amino-3-(1-ethylpropoxy)-1-cyclohexene-1-carboxylic acid ethyl ether, phosphate, reference compound]: the “Chemical Therapeutic Index” value in experiment [2] is given as 11.0.
As for `COc1ccc(-c2cn(C[C@@H]3CCCN4CCCC[C@H]34)nn2)cc1` [Compound 1, (1S,9aR)-1-{[4-(4-Methoxyphenyl)-1H-1,2,3-triazol-1-yl]methyl}octahydro-2H-quinolizine], the “Chemical Therapeutic Index” value in experiment [2] was 64.0.
`c1ccc(-c2cn(C[C@@H]3CCCN4CCCC[C@H]34)nn2)cc1` [Compound 3, (1S,9aR)-1-[(4-Phenyl-1H-1,2,3-triazol-1-yl)methyl]octahydro-2H-quinolizine]: the “Decrease in Influenza Virus Infectivity Titer, lg” value in experiment [1] amounted to 0.0 lg. The “Chemical Therapeutic Index” value in experiment [2] came to 8.1.
With `CC(N)C12CC3CC(CC(C3)C1)C2` (stereo not drawn) [Rimantadine, alpha-methyltricyclo[3.3.1.1/.7]decan-1-methanamine, reference compound], the “Chemical Therapeutic Index” value in experiment [2] was found to be 30.
Take `O=Cc1ccc(OCc2cn(C[C@@H]3CCCN4CCCC[C@H]34)nn2)cc1` [Compound 4, 4-({1-[((1S,9aR)-Octahydro-2H-quinolizin-1-yl)methyl]-1H-1,2,3-triazol-4-yl}methoxy)benzaldehyde]: the “Suppression of neuraminidase activity” value in experiment [3] was “no more than 40%”. Further, in experiment [2], the “Chemical Therapeutic Index” value is reported as 40.0.
Regarding `CCc1cc(C(=O)OCc2cn(C[C@@H]3CCCN4CCCC[C@H]34)nn2)c(O)c(C(C)(C)C)c1` [Compound 5, {1-[((1S,9aR)-Octahydro-2H-quinolizin-1-yl)methyl]-1H-1,2,3-triazol-4-yl}methyl-3-tert-butyl-2-hydroxy-5-ethylbenzoate], in experiment [3], the “Suppression of neuraminidase activity” value is listed as “no more than 40%”. In experiment [2], the “Chemical Therapeutic Index” value is reported as over 100.0. Further, in experiment [4], the “Suppression of hemagglutinating activity” value is reported as “no less than 25%”.
